US8436159B2, “Glyphosate resistant class I 5-endolpyruvylshikimate-3-phosphate synthase (EPSPS)” (Monsanto Technology LLC, priority 2003, dated 2013)

Target: T1, maize (Zea mays) class I EPSPS variant TIPI (T102I, P106I), pMON42486 (Zea mays, UniProt O24566, P106I/T102I)
T1 construct: pMON42486
T1 sequence (O24566 1-444 T102I/P106I): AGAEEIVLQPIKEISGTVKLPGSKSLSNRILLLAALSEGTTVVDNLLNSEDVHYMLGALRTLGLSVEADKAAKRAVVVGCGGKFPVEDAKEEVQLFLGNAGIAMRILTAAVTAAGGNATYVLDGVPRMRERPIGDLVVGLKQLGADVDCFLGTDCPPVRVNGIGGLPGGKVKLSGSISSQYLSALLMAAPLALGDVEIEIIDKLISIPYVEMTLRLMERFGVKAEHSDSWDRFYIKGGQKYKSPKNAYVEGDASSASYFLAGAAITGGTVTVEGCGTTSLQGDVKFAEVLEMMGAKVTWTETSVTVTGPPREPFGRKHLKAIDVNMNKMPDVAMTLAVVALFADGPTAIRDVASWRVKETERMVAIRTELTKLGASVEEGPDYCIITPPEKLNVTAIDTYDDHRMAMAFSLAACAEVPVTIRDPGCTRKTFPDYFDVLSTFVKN
Assay: EPSPS steady-state kinetics, TIPI variant
Assay type: biochemical
From the text: The double variants of the present invention were made using pMON58452 (FIG. 5) as the template. This pMON58452 EPSPS gene template contains the maize EPSPS double variant T102I, P106T (TIPT) that was constructed by mutagenesis of pMON70467 with the mutagenesis primers mEmut-9-U and mEmut-10-L. The various mutagenesis primer sequences were designed and then were synthesized by Invitrogen Corp., Custom Primers and used in combination in a PCR to create the variant EPSPS coding sequences. The PCR was set up in a 50 μl reaction in the following manner: dH2O 38 μl; 2 mM dNTP 1 μL; 10× buffer 5 μL; pMON58452 1 μL (10 ng); primer-U 2 μL; primer-L 2 μL; pfu Turbo enzyme 1 μL. PCR was carried out on a MJ Research PTC-200 thermal cycler using the following program: Step 1—94° C. for 30 seconds; Step 2—94° C. for 30 seconds; Step 3—55° C. for 1 minute; Step 4—68° C. for 14 minute; Step 5—go to step 2, 16 times; Step 6—End. At the end of the PCR, 1 μl of the restriction enzyme DpnI was added to each 50 μl of PCR reaction and the mixture was incubated at 37° C. for 1 hour. […]

In the case of O=C(O)CNCP(=O)(O)O [glyphosate, N-phosphonomethylglycine], the Ki is reported as 2500 ± 900 µM.
